From ChEMBL document CHEMBL1140594, “Farnesyltransferase pharmacophore model derived from diverse classes of inhibitors” (Bioorg Med Chem Lett, 2007) come the findings set out here.

This test in a line: Inhibition of FTase.

With `N#Cc1ccc(Cn2ccnc2)cc1Oc1cccc(C2CCCCNC2=O)c1` (stereo not given), the IC50 amounted to 41 nM. This counts as double-digit nanomolar.

`CC[C@@H](C)[C@@H](CO[C@@H](Cc1ccccc1)C(=O)N[C@@H](CCS(C)(=O)=O)C(=O)O)NC[C@@H](N)CS` registered an IC50 of 1.8 nM.

Consider `CN1CCN(C(=O)c2cn(Cc3cncn3Cc3ccc4c(c3)OCO4)cc2-c2cccc3ccccc23)CC1`, for which half-maximal inhibition (IC50) was put at 2.4 nM.

With `Fc1ccc2c(c1)[C@@H](OCc1ccc(Cl)cc1Cl)[C@@H](Cn1ccnc1)S2`, the half-inhibitory concentration (IC50) stood at 700 nM. Against the preceding molecule, the IC50 is about 290-fold higher.

In the case of `CN1CCC(C2c3ccccc3CCc3cccnc32)CC1` (stereo not given), the midpoint of inhibition, the IC50, lay at 720000 nM.

In the case of `CC(C)CCCC(C)C1CCC2C3C(CC[C@]12C)[C@@](C)(C[C@@H](CC(=O)O)C(=O)O)C(=O)C[C@@H]3C` (stereo not given in full), the IC50 is 40 nM.

Take `CC(=O)OCC(=O)[C@@]1(O)C(C)CC2C3CCC4=CC(=O)C=C[C@]4(C)C3=CC[C@@]21C` (stereo not given in full): 40000 nM corresponded to half-maximal inhibition (IC50).

In turn, `N#Cc1ccc(Cn2cncc2CN2CCN(c3ccccc3)C(=O)C2)cc1` returned an IC50 of 5 nM.

The molecule `Cn1cncc1C(OCc1ccc(C#N)cc1NC(=O)c1ccccc1)c1ccc(C#N)cc1` (stereo not given) came in with a concentration for half-maximal inhibition (IC50) of 5 nM.

With `CC[C@@H](C)[C@@H](CN(CC(=O)N[C@@H](CCSC)C(=O)O)Cc1cccc2ccccc12)NC(=O)Cc1cncn1Cc1ccc(C#N)cc1`, the IC50 was determined as 0.15 nM.

For `CSCC[C@H](NC(=O)c1cccc2cc(NC[C@H](N)CS)ccc12)C(=O)O`, it took 18 nM to reach half-maximal inhibition (IC50).

`COC(=O)[C@H](CCSC)NC(=O)c1cccc2cc(NC[C@H](N)CS)ccc12`: the IC50 turned out to be 500 nM.

Turning to `COc1ccccc1CC(=O)N1C[C@@H]2[C@@H]3CC[C@@](c4ccccc4)(c4ccccc43)[C@@H]2C1`, inhibition was half-maximal at 40000 nM (IC50).

`O=C1CN(Cc2cncn2Cc2cccc(Oc3ccccc3)c2)CCN1c1ccc(C(F)(F)F)cc1` displayed an IC50 of 5800 nM. Against the preceding molecule, the IC50 is about 6.9-fold lower.

Molecule `N#Cc1ccc(Cn2cncc2CN2CCN(c3cccc(Cl)c3)C(=O)C2)cc1Oc1ccc2ccccc2c1` gave a 50% inhibitory concentration (IC50) of 1 nM. Compared with the last molecule, the IC50 is about 5800-fold lower.

In the case of `CC[C@@H](C)[C@@H](CN(CC(=O)N[C@@H](CCSC)C(=O)O)Cc1cccc2ccccc12)NC(=O)Cc1cn(Cc2ccncc2)cn1`, the IC50 came to 74 nM.

`CCCC[C@H]1CN(C(=O)c2cccc3ccccc23)CCN1Cc1cncn1Cc1ccc(C#N)cc1` registered an IC50 of 21 nM.

In turn, `Cc1cccc2c1[C@@H](O)[C@@H](Cn1ccnc1)S2` returned an IC50 of 270000 nM.

Take `CCCC[C@H]1CN(c2ccc(Cl)cc2)C(=O)CN1Cc1cncn1Cc1ccc(C#N)cc1`: half-maximal inhibition (IC50) was put at 0.44 nM.

On to `CC[C@]1(c2cccc(Oc3cc([C@@](C)(N)c4cncn4C)ccc3C#N)c2)CCCCN(C)C1=O`, for which the concentration for half-maximal inhibition (IC50) amounted to 1.5 nM.

With `CC[C@@]1(c2cccc(Oc3cc([C@@](C)(N)c4cncn4C)ccc3C#N)c2)CCCCN(C)C1=O`, the IC50 is 0.06 nM.

`C=C(C(=O)N1C[C@H]2[C@@]3(c4ccc(C)cc4)CC[C@H](c4ccccc43)[C@@]2(C(=O)O)C1)c1ccccc1OC` registered an IC50 of 8 nM.

In the case of `N#Cc1ccc2cc1Oc1ccc3cccc(c3c1)N1CCN(CC1=O)Cc1cncn1C2`, 0.1 nM corresponded to half-maximal inhibition (IC50).

`O=C(Cc1ccncc1)N1CCN([C@H]2c3ccc(Cl)cc3CCc3cccnc32)CC1` returned an IC50 of 140 nM.

`CC[C@@H](C)[C@@H](CO[C@@H](Cc1ccccc1)C(=O)N[C@@H](CCS(C)(=O)=O)C(=O)OC)NC[C@@H](N)CS` came in with an IC50 of 240 nM.

In general, IC50 refers to the concentration at which inhibition is half-maximal.
